The values that follow come from article doi:10.1101/2022.06.29.498065v2 (biorxiv, 2022).

For this experiment, the target named is KFDV NS5 (Kyasanur Forest disease virus, UniProt D7RF80). Description: biochemical.

Structures are written as SMILES.

KFDV NS5, sequence (D7RF80 2518-3410 limits assumed): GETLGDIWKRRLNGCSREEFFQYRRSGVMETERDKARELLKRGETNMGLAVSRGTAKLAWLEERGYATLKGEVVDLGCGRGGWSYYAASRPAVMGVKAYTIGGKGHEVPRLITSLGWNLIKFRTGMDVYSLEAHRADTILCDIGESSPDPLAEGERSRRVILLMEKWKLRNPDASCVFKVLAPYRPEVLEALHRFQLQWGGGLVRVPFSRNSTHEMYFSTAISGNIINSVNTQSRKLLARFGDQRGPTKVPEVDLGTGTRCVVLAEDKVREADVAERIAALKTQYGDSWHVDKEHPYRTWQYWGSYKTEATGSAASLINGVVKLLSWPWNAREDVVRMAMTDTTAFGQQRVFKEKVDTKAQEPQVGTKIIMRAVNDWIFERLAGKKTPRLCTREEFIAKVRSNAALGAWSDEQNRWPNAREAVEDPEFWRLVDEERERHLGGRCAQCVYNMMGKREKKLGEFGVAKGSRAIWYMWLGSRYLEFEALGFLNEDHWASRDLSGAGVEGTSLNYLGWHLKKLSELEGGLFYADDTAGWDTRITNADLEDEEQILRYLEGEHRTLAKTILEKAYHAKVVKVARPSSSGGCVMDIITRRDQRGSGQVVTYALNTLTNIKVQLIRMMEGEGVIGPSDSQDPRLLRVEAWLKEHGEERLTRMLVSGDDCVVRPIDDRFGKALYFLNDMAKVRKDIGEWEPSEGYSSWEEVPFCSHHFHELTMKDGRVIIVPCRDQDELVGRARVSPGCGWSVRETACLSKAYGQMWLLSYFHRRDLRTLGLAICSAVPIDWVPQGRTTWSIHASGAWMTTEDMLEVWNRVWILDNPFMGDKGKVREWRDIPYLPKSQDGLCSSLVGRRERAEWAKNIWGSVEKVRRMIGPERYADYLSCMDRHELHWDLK

By IC50 is commonly meant the point on the concentration scale where inhibition reaches its midpoint. With `C[C@@]1(F)[C@H](O)[C@@H](COP(=O)(O)OP(=O)(O)OP(=O)(O)O)O[C@H]1n1ccc(=O)[nH]c1=O` [sofosbuvir triphosphate, β-D-2’-deoxy-2’-fluoro-2’-C-methyluridine 5’-triphosphate], the IC50 is 3.73 ± 0.033 µM.

With `CC(C)OC(=O)[C@H](C)N[P@](=O)(OC[C@H]1O[C@@H](n2ccc(=O)[nH]c2=O)[C@](C)(F)[C@@H]1O)Oc1ccccc1` [Sofosbuvir, L-Alanine, N-[[P(S),2’R]-2’-deoxy-2’-fluoro-2’-methyl-P-phenyl-5’-uridylyl]-,1-methyl ethyl ester], the IC50 came to 3.45 ± 0.012 µM.
